Assay results reported in patent publication US11459586B2, “Methods for increasing efficiency of nuclease-mediated gene editing in stem cells” (President and Fellows of Harvard College, priority 2016, dated 2022).

Tested on: human iPSC
Experiment: simultaneous multiplex mThy1 and mCD147 gene replacement in hiPSC
Format: cell-based
From the text: FIGS. 5A-B. Bcl-2 overexpression enables double homozygous targeted gene replacement in human iPSC. FIG. 5A. Mouse Thy1 gene targeting scheme (left). Mouse CD147 gene targeting scheme (right): Two sgRNAs target human BSG (CD147) within intron 1 (Left) or after the polyadenylation site (Right). The mouse CD147 targeting vector plasmid contains mCD147 coding exons 2-7, flanked by hCD147 homology arms outside the sgRNA sites—coding exon 1 (which encodes the signal peptide) is retained but the sgRNA sites are disrupted. FIG. 5B. Plain human iPSC were transfected with 1 μg each of the mThy1 and mCD147 targeting vectors together with a total of 2 μg “Cas9 only sgRNA” or “Cas9 Bcl-2 sgRNA” expression plasmid. Cells were transfected with the following sgRNA combinations: Thy1 Left and CD147 Left, Thy1 Right and CD147 Right, all four Thy1 and CD147 sgRNAs, or Negative sgRNA #1. Nine days later, cells were analyzed by flow cytometry for mThy1, hThy1, mCD147, and hCD147 expression. Upper two plots show the percent of Thy1 or CD147 gene replacement as gated on all live single iPSC. Lower four plots show the percent of CD147 gene replacement as gated on the Thy1 gene targeting quadrants. Results are representative of four independent experiments.
The U6 promoter-sgRNA (for each sgRNA sequence) was cloned into the EF1α promoter-Cas9 nuclease or EF1α promoter-Cas9 nuclease-IRES-Bcl-2 expression plasmids to form the “Cas9 only sgRNA” or “Cas9 Bcl-2 sgRNA” plasmids used in Examples 6 and 7.
Previously, low gene targeting frequencies in hiPSC could be overcome by clever enrichment or selection schemes. However, for simultaneous multiplex gene targeting, a higher absolute frequency is needed. […] Plain hiPSC were transfected with both mThy1 and mCD147 targeting vectors together with the “Cas9 only sgRNA” or “Cas9 Bcl-2 sgRNA” plasmids. Combinations of both Left sgRNAs, both Right sgRNAs, all four sgRNAs, or a negative control sgRNA were used. Cultures were then analyzed by flow cytometry for hThy1, mThy1, hCD147, and mCD147 expression. […] When cell populations were gated on homozygous mThy1 gene replacement (red) and then analyzed for mCD147 gene replacement, we found an enrichment of mCD147 events, rather than an independent assortment of gene editing outcomes. Likewise, when all four sgRNAs were transfected, the mThy1^−hThy1^− double negative population (blue) contained an enriched proportion of mCD147^−hCD147^− cells. Even considering an overall transfection rate of 60-70%, these enrichments indicate that hiPSC may be poised for either HR or NHEJ at various periods. With Bcl-2, the frequency of HR-mediated double homozygous gene replacements (mThy1^+hThy1^− mCD147^+hCD147^−) increased by an order of magnitude (Left sgRNAs: from 0.02% to 0.16%; Right sgRNAs: from 0.01% to 0.37%). […]

Substance: Bcl-2: B cell lymphoma 2 protein, anti-apoptotic, overexpressed from lentivirus or Cas9 plasmid
- frequency of HR-mediated double homozygous gene replacements (mThy1+hThy1- mCD147+hCD147-) (Left sgRNAs, with Bcl-2 (from 0.02% without)): 0.16%
- frequency of HR-mediated double homozygous gene replacements (mThy1+hThy1- mCD147+hCD147-) (Right sgRNAs, with Bcl-2 (from 0.01% without)): 0.37%
- NHEJ-mediated quadruple-negative deletions (mThy1-hThy1- mCD147-hCD147-) (all four sgRNAs, with Bcl-2 (from 0.7% without)): 1.1%
- gene editing frequencies (multiplex mThy1 and mCD147 targeting, every sgRNA combination): improved gene editing frequencies
